Experimental data published in paper PMC6572135, “N-Methyl-D-glucamine–Calix[4]resorcinarene Conjugates: Self-Assembly and Biological Properties” (Molecules, 2019).

Experiment: Conductometry, critical aggregation concentration
Assay type: physicochemical
Settings: water solution, 25 °C; GCR-2 in the presence of two-fold excess of MG
Protocol: Firstly, self-assembly of GCR-1 was studied by conductometric measurements (Figure 1). Specific conductivity increases proportionately with the GCR-1 concentration in water solution. Inflection on the plot appears at 14 mM, and after this critical aggregation concentration (CAC) the increment rate of conductivity reduces because the aggregates transfer charge less efficiently than monomers. Remarkably, modification of calix[4]resorcinarene by N-methyl-D-glucamine fragment facilitates self-aggregation of macrocycle in water medium (Figure 1). The CAC value for calix[4]resorcinarene (CR-1) without meglumine units at the upper rim is 20 mM that is greater than that for meglumine-modified calix[4]resorcinarene. The driving forces of intermolecular aggregates’ formation are probably hydrogen bonds between hydroxyl groups on the GCR-1 upper rim, so the presence of additional OH-groups in the meglumine group reinforces this noncovalent interaction. A stable pH value, which can be observed over a wide range of concentrations, verifies that the N-methyl-D-glucamine fragment is an effective buffer component (Figure S4). […] As a result, the aggregation of this calix[4]resorcinarene was studied in water solutions at the presence of two-fold excess of N-methyl-D-glucamine (MG). […] Specific conductivity values were measured at least three times for each concentration. […]

## Sulfonatoethylcalix[4]resorcinarene [CR-1, reference compound]
  CAC, conductometry: 20 mM
